This assay deals with T1, recombinant CYP-11 (Homo sapiens, UniProt P15538).
T1 construct: expressed in transfected cells; host or cells: AD293
T1 sequence (P15538 25-503): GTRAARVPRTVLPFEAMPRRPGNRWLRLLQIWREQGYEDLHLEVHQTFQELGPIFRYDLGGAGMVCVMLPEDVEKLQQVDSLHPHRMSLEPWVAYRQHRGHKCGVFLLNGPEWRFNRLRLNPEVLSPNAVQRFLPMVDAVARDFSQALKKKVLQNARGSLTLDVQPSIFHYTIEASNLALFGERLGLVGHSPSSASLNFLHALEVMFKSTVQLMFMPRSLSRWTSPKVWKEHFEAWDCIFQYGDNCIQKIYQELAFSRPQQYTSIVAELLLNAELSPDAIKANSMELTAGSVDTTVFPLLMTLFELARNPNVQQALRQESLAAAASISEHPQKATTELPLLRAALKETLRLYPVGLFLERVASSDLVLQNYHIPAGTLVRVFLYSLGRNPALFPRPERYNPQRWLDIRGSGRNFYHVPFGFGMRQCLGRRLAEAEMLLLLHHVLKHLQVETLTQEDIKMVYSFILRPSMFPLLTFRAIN
Put plainly: Cyp11 assay: AD293 cells over-expressing recombinant CYP-11, cortisol formation from 11-deoxycortisol by LC/MS. It is filed as cell-based. Here is the method:
Cyp11 assay protocol: AD293 cells that stably over-express recombinant CYP-11 were seeded in 96 well plates coated with poly D-lysine (15,000 cell per well) and incubated at 37° C. for 24 hours in Dulbecco's Modified Eagle Medium (DMEM) with Fetal Bovine Serum (FBS) that is stripped of hormones by charcoal treatment. The media is then removed, the cells are washed once with Phosphate buffer saline solution, and 50 μL Dulbecco's Modified Eagle Medium (DMEM) with Fetal Bovine Serum (FBS) that is stripped of hormones by charcoal treatment is added. Compounds of the disclosure are then added to the wells in eight concentration spanning 10 μM to 4.5 nM, and the plates are incubated for an additional 60 minutes at 37° C. 11-deoxycortisol is then added (2.0 μM) and the plates are incubated for an additional 12 hours at 37° C. After incubation, 50 uL of the supernatant (medium) is transferred into a fresh plate and 150 uL of an acetonitrile solution containing 200 ng/ml of Telmisartan is added. The sample is mixed and then placed in a centrifuge at 2000 rpm for 5 minutes. 100 uL of the supernatant is transferred into a fresh 96 well deep well plate, 100 uL of 1:1 methanol:water was added, the solution was mixed and then analyzed by LC/MS for the presence of cortisol using an Agilent 1200 RRLC/ABSCIEX API4000 LC-MS or Shimadzu Prominance/ABSCIEX API4000 LC-MS to determine IC5os of the compounds of the disclosure.

Each structure is given as a SMILES string.

The term IC50 denotes the point on the concentration scale where inhibition reaches its midpoint. As for `CC(=O)N1CCN(c2ccc(CO[C@H]3CO[C@](Cn4ccnc4)(c4ccc(Cl)cc4Cl)OC3)cc2)CC1` [drawing 112], the IC50 came to 12 nM.

The values are drawn from patent US20160244436A1, “NOVEL FUNCTIONALIZED 5-(PHENOXYMETHYL)-1,3-DIOXANE ANALOGS EXHIBITING CYTOCHROME P450 INHIBITION AND THEIR METHOD OF USE” (CORTENDO AB (PUBL), priority 2013, published 2016).
